Results taken from PMC5522267, “Targeting PEPT1: a novel strategy to improve the antitumor efficacy of doxorubicin in human hepatocellular carcinoma therapy” (Oncotarget, 2017).
Where a name gives a salt, the structure may show the parent alone. Marks after values point to notes of the source that are not given here.

How the values were obtained:
Bel-7402 = assay: Drug concentration in tumor cells by HPLC, Bel-7402; format: cell-based, human; details: incubated 2 hours
Experimental: (§1) When the density of HCC cells reached to 3 × 10^6/ml, they were trypsinized and centrifuge (4°C, 800rpm, 5min), then discarded the supernatant, dropping medium 3 ml and evenly mixed. Cell suspension was divided into three groups (control group, Doxorubicin-tripeptide conjugate group and Doxorubicin group). The drug concentration was 0.01 mg/ml for cultured 2 hours avoiding light. Then the cells obtained by centrifugation were proceeded by the following steps: washed 3 times with 1 ml normal saline, added 0.5 ml ultra pure water (Millipore), broken by ultrasonic wave, drooped in acetonitrile (Tianjin Concord Technology Co. Ltd, China) 0.5 ml, mixed, ultrasonic oscillation for 10 mins, centrifuge (1200 rpm, 15 min), take the supernatant, filtration with filter membrane, take 20 μl for HPLC analysis (Agilent 1100 HPLC system, USA).
(§2) Chromatographic conditions were as follows: chromatographic column: DIONEX Acclaim 120 C18 (2.1 × 250 mm, 5 μm 120A), Mobile phase: Acetonitrile-0.2%NaH2PO4 aqueous solution (35: 65), Velocity: 0.35 ml/min, column temperature: 30°C, DAD, 254 nm, sample size: 20 μl. […] According to the chromatographic condition, the retention time (tR), peak position time, chromatographic behavior, resolution (R), the minimum detectable concentration and the intracellular drug concentration of these two drugs were detected in turn.

[1] = Cardiac indexes, HepG2 HCC mice; format: in vivo, nude mice; details: low dose, after treatment
HepG2 = assay: Drug concentration in tumor cells by HPLC, HepG2; format: cell-based, human; details: incubated 2 hours
Experimental: as §1, §2

[2] = Cardiac indexes, Bel-7402 HCC mice; format: in vivo, nude mice; details: high dose, after treatment
[3] = HCC mice, both dose groups
Experimental: After the HCC mice model was established, the nude mice were randomly assigned to three groups: Group A (control group: administration with normal saline 0.2 ml every time), group B (administration with Doxorubicin-tripeptide conjugate) and group C (administration with Doxorubicin). […] Treatment was conducted every 3 weeks for 5 weeks. Pay close attention to the general condition of the mice and their subcutaneous tumor and draw survivorship curve. The mice were weighed every 3 days and tumor volume was measured with a digital caliper using the formula: volume = (1/6).π. length × width × height. At the end of the experiment, tumor weight and volume was measured to obtained the tumor inhibitory rate and actual volume, which were calculated by the follow formula respectively: tumor inhibitory rate = (The average tumor weight of control group-experimental group)/control group × 100 %. volume = (1/6).π. length × width × height.
After the course of administration, mice were sacrificed, then the blood was collected to detect relevant indexes including quantitative serum protein, blood routine, myocardial enzymes (CK, CK-MB, LDH, AST), GSH-PX, MDA and SOD, the bone marrow taken to make bone marrow smear. What's more, the tumor, liver, jejunum and heart tissue of mice were dissected firstly for Small Animal Imaging (KODAK IS in-vivo FX, Kodak), and secondly were placed in the 10% Formaldehyde solution to prepare paraffin section, HE staining for histological examination. […] The tests of CK, CK-MB, LDH, AST, GSH-PX, MDA and SOD were completed in accordance with instructions strictly (Jiancheng Bioengineering Institute, Nanjing, China).

With `COc1cccc2c1C(=O)c1c(O)c3c(c(O)c1C2=O)C[C@@](O)(C(=O)CO)C[C@@H]3O[C@H]1C[C@H](N)[C@H](O)[C@H](C)O1` [Doxorubicin, Doxorubicin hydrochloride] the “drug concentration in tumor cells” value (Bel-7402) was 2420 ± 30 ng/mL, the AST [1] was 989.25 ± 145.74 U/L and the CK [1] was 1160.50 ± 164.82 U/L. For the same molecule, the CK-Mb [1] was 797.00 ± 155.90^a U/L, the GSH-PX [1] was 515.57 ± 146.57^a U and the LDH [1] was 6958.50 ± 991.50 U/L. The MDA [1] was 3.97 ± 0.50 nmol/mg, the SOD [1] was 135.63 ± 16.22^a U/mg and the “drug concentration in tumor cells” value (HepG2) was 2320 ± 30 ng/mL. The AST [2] was 1400.83 ± 506.35^a U/L, the CK [2] was 1357.83 ± 504.33^ac U/L and the CK-Mb [2] was 823.17 ± 342.53 U/L. For the same molecule, the GSH-PX [2] was 462.36 ± 100.90^a U, the LDH [2] was 5811.67 ± 3290.44 U/L and the MDA [2] was 3.43 ± 0.35^a nmol/mg. For the same molecule, the SOD [2] was 151.60 ± 18.08^a U/mg and the “change of mice weight during treatment” value [3] was “the most significant”.
